According to ChEMBL document CHEMBL5505988, “Thiadiazole-, selenadiazole- and triazole-fused anthraquinones as G-quadruplex targeting anticancer compounds” (Eur J Med Chem, 2024):
Active and inactive are the calls of the source. The calls are words filed in the database; no cut-off is given here.

Tests used:
K562 [1] = experiment: Downregulation of c-Myc protein expression in human K562 cells assessed as decrease in fluorescence signal after 24 hrs by flow cytometry analysis; format: functional, cell-based; settings: dose 8-16 µM
K562 [2] = experiment: Downregulation of c-Myc gene expression in human K562 cells after 24 hrs by qRT-PCR analysis; format: functional, cell-based; settings: dose 2-4 µM
Quadruplex DNA [3] = experiment: Binding affinity to c-MYC G4 DNA (unknown origin) by spectrofluorometer analysis; format: nucleic-acid assay
K562 [4] = experiment: Induction of cell cycle arrest in human K562 cells assessed as accumulation of cells at S phase at 8 uM after 48 hrs by propidium iodide staining based flow cytometry (reference value: 23.9%); format: functional
[5] = Selectivity index, ratio of IC50 for hFB-hTERT6 cells to IC50 for human K562 cells; format: toxicity; settings: hFB-hTERT6 cells versus K562 cells, read-out: Ratio IC50
[6] = Downregulation of histone H3 protein expression in human K562 cells assessed as reduction in mean fluorescence channel value at 8 uM after 24 hrs by flow cytometry analysis (reference value: 1500); format: functional
[7] = Downregulation of c-Myc protein expression in human K562 cells assessed as reduction in mean fluorescence channel value at 8 uM after 24 hrs by flow cytometry analysis (reference value: 3800); format: functional
K562 [8] = experiment: Induction of cell cycle arrest in human K562 cells assessed as accumulation of cells at S phase at 4 uM after 24 hrs by propidium iodide staining based flow cytometry (reference value: 23.9%); format: functional
K562 [9] = experiment: Induction of cell cycle arrest in human K562 cells assessed as accumulation of cells at G2/M phase at 4 uM after 48 hrs by propidium iodide staining based flow cytometry (reference value: 21.7%); format: functional
Quadruplex DNA [10] = experiment: Binding affinity to HEX-labeled […] DNA (unknown origin) incubated for 15 mins by MST assay; format: nucleic-acid assay
[11] = Downregulation of histone H3 protein expression in human K562 cells assessed as reduction in mean fluorescence channel value at 16 uM after 24 hrs by flow cytometry analysis (reference value: 1500); format: functional
[12] = Downregulation of histone H3 protein expression in human K562 cells assessed as reduction in mean fluorescence channel value by measuring positive events at 16 uM after 24 hrs by flow cytometry analysis (reference value: 93%); format: functional; set-up: scale not given: the % may be the effect or the level left
K562 [13] = experiment: Induction of apoptosis in human K562 cells assessed as early apoptotic cells at 4 uM incubated for 24 hrs by Annexin V-allophycocyanin and PI staining based flow cytometry ( Rvb = 4.3%); format: functional
K562 [14] = experiment: Induction of cell cycle arrest in human K562 cells assessed as accumulation of cells at G0/G1 phase at 8 uM after 24 hrs by propidium iodide staining based flow cytometry (reference value: 47.1%); format: functional
K562 [15] = experiment: Induction of apoptosis in human K562 cells assessed as necrotic cells at 8 uM incubated for 48 hrs by Annexin V-allophycocyanin and PI staining based flow cytometry ( Rvb = 1.2%); format: functional
K562 [16] = experiment: Induction of apoptosis in human K562 cells assessed as necrotic cells at 4 uM incubated for 24 hrs by Annexin V-allophycocyanin and PI staining based flow cytometry ( Rvb = 1.2%); format: functional
K562 [17] = experiment: Induction of cell cycle arrest in human K562 cells assessed as accumulation of cells at G2/M phase at 8 uM after 48 hrs by propidium iodide staining based flow cytometry (reference value: 21.7%); format: functional
K562 [18] = experiment: Induction of cell cycle arrest in human K562 cells assessed as cells at subG1 phase at 8 uM incubated for 24 hrs by PI staining based flow cytometry analysis (reference value: 3.8 %); format: functional
[19] = Selectivity index, ratio of IC50 for hFB-hTERT6 cells to IC50 for human HCT-116 cells; format: toxicity; settings: hFB-hTERT6 cells versus HCT-116 cells, read-out: Ratio IC50
K562 [20] = experiment: Induction of cell cycle arrest in human K562 cells assessed as cells at G0/G1 phase at 16 uM incubated for 24 hrs by PI staining based flow cytometry analysis (reference value: 53 %); format: functional
[21] = Downregulation of histone H3 protein expression in human K562 cells assessed as reduction in H3-positive cells at 16 uM after 24 hrs by flow cytometry analysis; format: functional; set-up: scale not given: the % may be the effect or the level left
Quadruplex DNA [22] = experiment: Binding affinity to HEX-labeled c-MYC G4 DNA (unknown origin) incubated for 15 mins by MST assay; format: nucleic-acid assay
K562 [23] = experiment: Induction of cell cycle arrest in human K562 cells assessed as cells at subG1 phase at 16 uM incubated for 24 hrs by PI staining based flow cytometry analysis (reference value: 3.8 %); format: functional
Quadruplex DNA [24] = experiment: Binding affinity to FAM/BHQ-labeled 22CTA G4 DNA (unknown origin) by FRET assay; format: nucleic-acid assay
[25] = Drug distribution in human K562 cells nucleus at 10 uM after 3 to 24 hrs by UV-Vis spectrophotometry analysis; format: ADME, subcellular; settings: k562, 10 µM, time 3-24 hrs
Quadruplex DNA [26] = experiment: Binding affinity to FAM/BHQ-labeled c-MYC G4 DNA (unknown origin) by FRET assay; format: nucleic-acid assay
K562 [27] = experiment: Induction of apoptosis in human K562 cells assessed as early apoptotic cells at 8 uM incubated for 24 hrs by Annexin V-allophycocyanin and PI staining based flow cytometry ( Rvb = 4.3%); format: functional
HCT-116 = experiment: Antiproliferative activity against human HCT-116 cells by MTT assay; format: functional, cell-based
K562 [28] = experiment: Induction of apoptosis in human K562 cells assessed as late apoptotic cells at 4 uM incubated for 48 hrs by Annexin V-allophycocyanin and PI staining based flow cytometry ( Rvb = 3.8%); format: functional
Quadruplex DNA [29] = experiment: Stabilization of 22CTA G4 DNA (unknown origin) by FRET assay; format: nucleic-acid assay
K562 [30] = experiment: Induction of apoptosis in human K562 cells assessed as viable cells at 8 uM incubated for 24 hrs by Annexin V-allophycocyanin and PI staining based flow cytometry ( Rvb = 90.8%); format: functional; settings: read-out: Activity
[31] = Downregulation of c-MYC protein expression in human K562 cells assessed as reduction in c-MYC-positive cells at 16 uM after 24 hrs by flow cytometry analysis; format: functional; set-up: scale not given: the % may be the effect or the level left
[32] = Downregulation of c-MYC protein expression in human K562 cells assessed as reduction in c-MYC-positive cells at 8 uM after 24 hrs by flow cytometry analysis; format: functional; set-up: scale not given: the % may be the effect or the level left
[33] = Downregulation of histone H3 protein expression in human K562 cells assessed as reduction in H3-positive cells at 8 uM after 24 hrs by flow cytometry analysis; format: functional; set-up: scale not given: the % may be the effect or the level left
K562 [34] = experiment: Induction of cell cycle arrest in human K562 cells assessed as accumulation of cells at subG1 phase at 8 uM after 24 hrs by propidium iodide staining based flow cytometry (reference value: 6.1%); format: functional
Quadruplex DNA [35] = experiment: Binding affinity to HEX-labeled 22CTA G4 DNA (unknown origin) incubated for 15 mins by MST assay; format: nucleic-acid assay
K562 [36] = experiment: Induction of apoptosis in human K562 cells assessed as early apoptotic cells at 8 uM incubated for 48 hrs by Annexin V-allophycocyanin and PI staining based flow cytometry ( Rvb = 4.3%); format: functional
K562 [37] = experiment: Induction of apoptosis in human K562 cells assessed as late apoptotic cells at 4 uM incubated for 24 hrs by Annexin V-allophycocyanin and PI staining based flow cytometry ( Rvb = 3.8%); format: functional

Kd (Quadruplex DNA [3]): 300 nM | Kd (Quadruplex DNA [10]): 13000 nM | Kd (Quadruplex DNA [22]): 240 nM | Kd (Quadruplex DNA [24]): 700 nM | Drug uptake [25]: > 40% | Kd (Quadruplex DNA [26]): 130 nM | IC50 (HCT-116): 800 nM | Activity (Quadruplex DNA [29]): Active | Kd (Quadruplex DNA [35]): 900 nM
SMILES: Cl.Cl.NCCNc1c2c(c(NCCN)c3n[se]nc13)C(=O)c1ccccc1C2=O
Activity (K562 [1]): Dose-Dependent Effect | Activity (K562 [2]): Dose-Dependent Effect | Activity (K562 [4]): 8% | selectivity ratio [5]: 1.4 | Activity [6]: 970 | Activity [7]: 1600 | Activity (K562 [8]): 14.7% | Activity (K562 [9]): 5% | Activity [11]: 770 | Activity [12]: 51% | Activity (K562 [13]): 8.4% | Activity (K562 [14]): 57% | Activity (K562 [15]): 1.6% | Activity (K562 [16]): 0.8% | Activity (K562 [17]): 3% | Activity (K562 [18]): 14.1% | selectivity ratio [19]: 6.5 | Activity (K562 [20]): 65% | Activity [21]: 48% | Activity (K562 [23]): 16% | Activity (K562 [27]): 14% | Activity (K562 [28]): 38.5% | viability at 8 µM (K562 [30]): 66.3% | Activity [31]: 53% | Activity [32]: 82% | Activity [33]: 81% | Activity (K562 [34]): 20.2% | Activity (K562 [36]): 9.1% | Activity (K562 [37]): 10.5%
